In patent publication US6994551B2, “Stable self-etching primer and adhesive bonding resin compositions, systems, and methods” (Bisco, Inc., priority 2002, dated 2006):
Where two headings read alike, the source gives them in different places.

Protocol: Several experiments were performed to evaluate the solubility of Bis-MEP in various solvent systems.

With `C=C(C)C(=O)OCCOP(=O)(O)OCCOC(=O)C(=C)C` [Bis-MEP, Bis-[2-(methacryloyloxy)ethyl]phosphate] the appearance of mixture (0.67 weight percent in water) was “did not dissolve”, the appearance of mixture (2 weight percent mixture in water) was “did not dissolve” and the appearance of mixture (10 weight percent in water (no ethanol)) was “not homogeneous”. The appearance of mixture (14.72 weight percent in ethanol 34.40 / water 50.88 weight percent, room temperature) was “clear solution” and the appearance of mixture (20 weight percent in water (no ethanol)) was “not homogeneous”.
